Source: ChEMBL document CHEMBL3407497, “Discovery of small molecule inhibitors to Krüppel-like factor 10 (KLF10): implications for modulation of T regulatory cell differentiation” (J Med Chem, 2015)
Activity calls are given as the source filed them. The calls are words filed in the database; no cut-off is given here.

Experiments:
[1] = Inhibition of zinc finger protein C7 (unknown origin) assessed as reduction in transcriptional activity by luciferase reporter gene assay relative to untreated control; parameters: species or system Homo sapiens
[2] = test system: HEK293; assay: Inhibition of GLI (unknown origin) expressed in HEK293 cells assessed as reduction in GLI-mediated transcription at 30 uM; type: cell-based; settings: Homo sapiens
[3] = target: T1, Krueppel-like factor 10 (Homo sapiens) (UniProt Q13118); assay: Inhibition of KLF10 (unknown origin) binding to DNA at 8 uM incubated for 4 hrs followed by biotin-labeled probes addition and incubated for another 1 hr by electromobility gel shift assay
T1 sequence (whole entry): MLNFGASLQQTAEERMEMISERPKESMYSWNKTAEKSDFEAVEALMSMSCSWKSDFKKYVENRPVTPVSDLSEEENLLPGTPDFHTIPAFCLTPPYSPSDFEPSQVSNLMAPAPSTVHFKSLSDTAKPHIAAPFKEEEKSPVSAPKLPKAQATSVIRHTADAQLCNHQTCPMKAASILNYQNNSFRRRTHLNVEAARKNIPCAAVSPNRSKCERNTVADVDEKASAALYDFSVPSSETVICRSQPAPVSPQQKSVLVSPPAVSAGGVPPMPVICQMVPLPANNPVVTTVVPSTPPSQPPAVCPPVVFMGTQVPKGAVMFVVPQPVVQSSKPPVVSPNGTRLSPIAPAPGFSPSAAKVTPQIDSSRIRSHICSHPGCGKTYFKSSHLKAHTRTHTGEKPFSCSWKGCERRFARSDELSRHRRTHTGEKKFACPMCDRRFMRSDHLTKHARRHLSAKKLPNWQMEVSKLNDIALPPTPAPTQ

[4] = target: T1, Krueppel-like factor 10 (Homo sapiens); assay: Inhibition of KLF10 (unknown origin) binding to DNA at 40 uM incubated for 4 hrs followed by biotin-labeled probes addition and incubated for another 1 hr by electromobility gel shift assay
[5] = test system: T-cell; assay: Inhibition of Foxp3 gene expression in mouse T regulatory cells at 50 uM measured during TGFbeta1-induced conversion of CD4(+) and CD25(-) cells to CD4(+) and CD25(+) cells incubated for 3 days by real-time quantitative PCR method; type: functional; settings: 72 h
[6] = test system: T-cell; assay: Inhibition of mouse T regulatory cell differentiation assessed as inhibition of TGFbeta1-induced conversion of CD4(+) and CD25(-) cells to CD4(+) and CD25(+) cells incubated for 3 days by flow cytometry; type: functional
[7] = target: Krueppel-like factor 1 (Homo sapiens) (UniProt Q13351); assay: Inhibition of KLF1 (unknown origin) binding to DNA at 40 uM incubated for 4 hrs followed by biotin-labeled probes addition and incubated for another 1 hr by electromobility gel shift assay
[8] = target: Krueppel-like factor 1 (Homo sapiens) (UniProt Q13351); assay: Inhibition of KLF1 (unknown origin) binding to DNA at 8 uM incubated for 4 hrs followed by biotin-labeled probes addition and incubated for another 1 hr by electromobility gel shift assay
[9] = target: T2, Krueppel-like factor 10 (Homo sapiens, UniProt Q13118); assay: Inhibition of human KLF10 expressed in human HeLa cells assessed as reduction in transcriptional activity after 24 hrs by CACCC-responsive promoter driven TK-luciferase reporter gene assay; type: cell-based
T2 sequence (Q13118 whole entry): T1 sequence (whole entry)

Krueppel-like factor 1 (Homo sapiens), sequence (Q13351 whole entry): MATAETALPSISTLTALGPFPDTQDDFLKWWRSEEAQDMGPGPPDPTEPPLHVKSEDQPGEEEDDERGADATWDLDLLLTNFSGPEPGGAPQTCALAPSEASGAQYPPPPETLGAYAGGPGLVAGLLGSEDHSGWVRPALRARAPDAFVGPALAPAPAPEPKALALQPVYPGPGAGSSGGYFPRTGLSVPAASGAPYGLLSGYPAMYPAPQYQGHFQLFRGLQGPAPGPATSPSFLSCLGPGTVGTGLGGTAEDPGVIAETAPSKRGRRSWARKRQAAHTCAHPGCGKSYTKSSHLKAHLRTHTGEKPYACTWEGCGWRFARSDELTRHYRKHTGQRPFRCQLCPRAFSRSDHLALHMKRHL

Row | Structure (SMILES) | inhibition [3] | inhibition [4] | inhibition [7] | inhibition [8] | inhibition [2] | inhibition at 50 µM [5] | inhibition (INH) [6] | further results
1 | c1ccc2[nH]c(-c3ccnc4ccccc34)nc2c1 |  |  |  |  |  |  |  | EC50 [1]: 35 µM
2 | CN(C)c1ccccc1CN1CCCN(Cc2ccccc2N(C)C)C1c1ccncc1 |  |  |  |  | Active |  |  | 
3 | Cc1sc2nc(SCC(=O)c3ccc(O)c(O)c3)[nH]c(=O)c2c1C | 25% |  |  |  |  | 90.8% | 29.2% | 
4 | c1cc(-c2sc(-c3ccncc3)c(-c3ccncc3)c2-c2ccncc2)ccn1 |  |  |  |  | Active |  |  | 

Continued, in another order:

Row | inhibition [3] | inhibition [4] | inhibition [7] | inhibition [8] | Structure (SMILES) | inhibition [2] | inhibition at 50 µM [5] | inhibition (INH) [6] | further results
5 | 12% | 45% | inactive | inactive | COc1ccc(C(=O)COC(=O)c2cc(C)ccc2O)cc1 |  | 82.5% | 59.1% | IC50 [9]: 40 µM
6 | 11% | 25% | inactive | inactive | Cc1ccc(OCC(=O)c2cc(C)c(O)cc2O)cc1 |  | 84.7% |  | 
